The format of series [1] is in vivo. The note with it: rat, tail vein, 2 hours; 300 μl of 5% free or 1 ml of 0.2% encapsulated. How it is done:
300 μl of 5% fluorescein sodium or 1 ml of 0.2% encapsulated fluorescein sodium, were administered to the rat through the tail vain and the retina monitored. Free fluorescein was removed by use of ultracentrifugation and PD-10; columns as outlined earlier. After 2 hours; under general anaesthesia, the animals underwent fixation perfusion with 4% paraformaldehyde. Brains were stored in 4% paraformaldehyde overnight, following which 800 um slices were cut and examined under fluorescent confocal microscopy.
The images in FIG. 24 come from similar regions in the brain from an animal with intravenous encapsulated fluorescein sodium (A-B) compared to one with plain intravenous fluorescein sodium (C-D). Both fluorescence (A, C) and transmission (B, D) images are shown. […] This confirms the fact that encapsulation allows the fluorescein sodium to cross the BBB.
The appearance of fluorescent patches or “monofocal leakages” of sodium flourescein is similar to that that has been described when BBB disruption occurs in the brain, as discussed earlier (Natah, S. S. et al. J Appl Physiol 107: 1348-1356 2009).

The format of series [2] is in vivo. The note with it: rat, tail vein; 300 μl of 5% free or 1 ml of 0.2% encapsulated. The procedure: 300 μl of 5% fluorescein sodium or 1 ml of 0.2% encapsulated fluorescein sodium, were administered to the rat through the tail vain and the retina monitored. Free fluorescein was removed by use of ultracentrifugation and PD-10 columns as outlined earlier.
It is important to highlight that the retinal blood vessels were not seen with the encapsulated material (A-C) as they are without (D-F), although there is a hint of arterial wall fluorescence in the encapsulated treated eye at 34 minutes (B). […] They were absent from the non-encapsulated eyes. These focal patches of fluorescence are believed to be intact liposomes containing fluorescein. […] The appearance, of fluorescent patches or “monofocal leakages” of sodium flourescein is similar to that that has been described when BBB disruption occurs in the brain (see FIG. 20 from Natah, S. S. et al. J Appl Physiol 107: 1348-1356 2009).

The format of series [3] is in vivo. The note with it: intravitreal injection, eyes imaged after 3 hours. The procedure:
To access the release of encapsulated material, liposomes containing encapsulated αBT and annexin V-776 were administered via Intravitreal injection and the eyes were imaged after 3 hours.

Series [4] is described as follows: In vivo labelling of retinal vasculature by alpha-bungarotoxin. An excerpt: The invention also provides alpha-bungarotoxin (αBT) for use in labelling the retinal vasculature of a subject. This is in vivo labelling. αBT is know to bind to nicotinic acetylcholine receptors (nAChRs) and is readily used to label the end plate of neuromuscular junctions ex vivo. It has not been applied to labelling in vivo due to it's potential neuromuscular inhibitory effects when used systemically. However, such problems are not seen when using it directly in the eye. The wall of the retinal vasculature, and in particular the arteries, is a muscular environment housing nAChRs. Therefore, αBT labels them specifically. This patterned labelling in the eye is something that is otherwise very difficult to achieve. Preferably, the αBT is administered directly to the retinal vasculature of the eye, for example, by intravitreal injection. Preferably, the αBT is labelled with an imaging moiety such as fluorescein.

As for `O=C1OC2(c3ccc(O)cc3Oc3cc(O)ccc32)c2ccccc21` [Fluorescein, fluorescein sodium], the “fluorescence in brain slices” value in series [1] is reported as “no signal at all”. The “crossing of the blood retinal barrier” value in series [2] is “unable to cross an intact blood retinal barrier and remains isolated to the vessels”.

As to “Annexin V-776: labelled annexin V, anionic phospholipid binding protein, given with liposomes”, in series [3], the “release of cargo from liposomes” value is “successful release”.

On to alpha-bungarotoxin [αBT], for which, in series [4], the “labelling of retinal vessels” value is reported as “specifically labels the arteries in the retina”.
